Reference: patent US20250197372A1 (priority 2020, published 2025)

Tests used:
Format in all cases: biochemical
[1] = target: T1, recombinant alpha-glucosidase I (human full-length glucosidase I, Glu 1) (Homo sapiens, UniProt Q13724); assay: Alpha-glucosidase I assay (Amplex Red glucose detection, synthetic trisaccharide substrate); conditions: Glucosidase 1; read-out: Glu 1 IC50
T1 construct: 6-His (C); made in house; host or cells: HEK-293T cells transduced with BacMam virus (virus raised in Sf9)
T1 sequence (Q13724 1-837): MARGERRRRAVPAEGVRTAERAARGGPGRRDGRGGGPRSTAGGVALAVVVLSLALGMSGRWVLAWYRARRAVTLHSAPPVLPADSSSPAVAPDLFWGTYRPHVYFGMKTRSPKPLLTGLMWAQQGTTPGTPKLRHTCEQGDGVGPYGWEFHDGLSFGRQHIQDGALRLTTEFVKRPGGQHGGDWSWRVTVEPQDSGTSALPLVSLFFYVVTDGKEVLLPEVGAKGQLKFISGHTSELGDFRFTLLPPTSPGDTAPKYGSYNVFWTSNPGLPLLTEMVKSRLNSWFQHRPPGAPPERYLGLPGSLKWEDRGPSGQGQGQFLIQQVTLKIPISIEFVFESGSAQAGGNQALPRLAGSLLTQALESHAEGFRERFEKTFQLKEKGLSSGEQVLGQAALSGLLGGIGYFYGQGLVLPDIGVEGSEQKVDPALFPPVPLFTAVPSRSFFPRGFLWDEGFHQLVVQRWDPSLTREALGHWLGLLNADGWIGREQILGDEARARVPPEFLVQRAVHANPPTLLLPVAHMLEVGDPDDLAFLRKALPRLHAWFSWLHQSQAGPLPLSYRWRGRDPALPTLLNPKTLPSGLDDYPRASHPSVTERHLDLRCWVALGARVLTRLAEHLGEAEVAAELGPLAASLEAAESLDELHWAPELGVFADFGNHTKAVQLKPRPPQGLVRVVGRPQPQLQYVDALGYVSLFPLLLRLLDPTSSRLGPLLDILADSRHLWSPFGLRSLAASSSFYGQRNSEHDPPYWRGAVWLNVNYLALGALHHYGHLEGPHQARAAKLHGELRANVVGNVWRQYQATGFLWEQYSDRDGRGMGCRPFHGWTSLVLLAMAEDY
Outline: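 Human full-length glucosidase I, His-tagged, […] and Ni-purified. Enzyme preincubated with compound dilutions 60 min at 37° C, then synthetic trisaccharide substrate 90 min at 37° C; stopped with 1.5M Tris pH 8.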

[2] = target: rat maltase (partially purified alpha-glucosidase from intestinal rat powder); assay: Intestinal alpha-glucosidase assay, maltose substrate (Glucose GO Kit)
Outline: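 Partially purified alpha-glucosidase from rat intestinal powder was preincubated 60 min at 37 °C with serial compound dilutions, then given maltose or sucrose and incubated 30 min at 37 °C.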

[3] = target: T2, recombinant alpha-glucosidase II (murine full-length glucosidase II, alpha and beta subunits, Glu 2) (Mus musculus, UniProt Q8BHN3); assay: Alpha-glucosidase II assay (4-methylumbelliferyl-alpha-D-pyranoside substrate, fluorescence); conditions: Glucosidase 2; read-out: Glu2 IC50
T2 construct: made in house; host or cells: HEK-293T cells transduced with BacMam viruses (75% alpha, 25% beta); protein harvested from culture supernatant
T2 sequence (O08795 15-521): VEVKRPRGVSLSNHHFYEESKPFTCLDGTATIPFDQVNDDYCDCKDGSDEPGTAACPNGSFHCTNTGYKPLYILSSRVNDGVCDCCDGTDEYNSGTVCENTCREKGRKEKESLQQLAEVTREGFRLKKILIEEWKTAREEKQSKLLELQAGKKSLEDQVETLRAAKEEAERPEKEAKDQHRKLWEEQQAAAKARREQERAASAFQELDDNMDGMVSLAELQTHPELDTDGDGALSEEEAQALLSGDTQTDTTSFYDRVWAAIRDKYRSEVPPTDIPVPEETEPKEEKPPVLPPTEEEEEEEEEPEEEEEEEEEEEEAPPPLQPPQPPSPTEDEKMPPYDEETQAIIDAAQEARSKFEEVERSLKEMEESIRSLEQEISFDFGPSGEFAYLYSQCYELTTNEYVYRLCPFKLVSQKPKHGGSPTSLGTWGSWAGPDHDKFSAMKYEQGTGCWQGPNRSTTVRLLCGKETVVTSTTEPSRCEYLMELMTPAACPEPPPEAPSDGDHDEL
T2 sequence (Q8BHN3 33-944): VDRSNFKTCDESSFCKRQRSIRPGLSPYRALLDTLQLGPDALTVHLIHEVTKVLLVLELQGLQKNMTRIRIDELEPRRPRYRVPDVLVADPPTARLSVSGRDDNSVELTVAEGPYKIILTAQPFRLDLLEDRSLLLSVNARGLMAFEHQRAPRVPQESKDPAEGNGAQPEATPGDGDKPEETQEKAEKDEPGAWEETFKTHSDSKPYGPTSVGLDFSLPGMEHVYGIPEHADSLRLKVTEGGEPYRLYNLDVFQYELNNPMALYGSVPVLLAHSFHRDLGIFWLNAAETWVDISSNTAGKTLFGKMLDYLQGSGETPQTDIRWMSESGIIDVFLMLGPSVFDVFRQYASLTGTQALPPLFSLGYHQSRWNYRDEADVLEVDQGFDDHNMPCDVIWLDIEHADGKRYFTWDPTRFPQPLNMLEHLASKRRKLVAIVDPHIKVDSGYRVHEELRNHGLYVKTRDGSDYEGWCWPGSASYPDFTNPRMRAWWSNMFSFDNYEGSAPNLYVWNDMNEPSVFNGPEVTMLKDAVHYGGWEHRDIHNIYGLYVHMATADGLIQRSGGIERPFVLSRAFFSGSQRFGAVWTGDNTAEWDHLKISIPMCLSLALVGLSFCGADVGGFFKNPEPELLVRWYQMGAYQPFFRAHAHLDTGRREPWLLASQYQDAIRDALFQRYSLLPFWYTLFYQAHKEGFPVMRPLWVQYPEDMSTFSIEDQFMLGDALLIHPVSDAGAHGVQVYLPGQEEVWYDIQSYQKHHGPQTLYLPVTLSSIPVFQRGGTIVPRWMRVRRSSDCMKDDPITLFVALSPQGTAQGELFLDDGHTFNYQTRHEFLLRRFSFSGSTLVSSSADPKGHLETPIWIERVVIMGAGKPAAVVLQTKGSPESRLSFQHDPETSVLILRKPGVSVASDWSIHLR

[4] = target: rat sucrase (partially purified alpha-glucosidase from intestinal rat powder) (Rattus norvegicus, UniProt P23739); assay: Intestinal alpha-glucosidase assay, sucrose substrate (Glucose GO Kit)
Chain of rat sucrase (partially purified alpha-glucosidase from intestinal rat powder) (P23739 whole entry): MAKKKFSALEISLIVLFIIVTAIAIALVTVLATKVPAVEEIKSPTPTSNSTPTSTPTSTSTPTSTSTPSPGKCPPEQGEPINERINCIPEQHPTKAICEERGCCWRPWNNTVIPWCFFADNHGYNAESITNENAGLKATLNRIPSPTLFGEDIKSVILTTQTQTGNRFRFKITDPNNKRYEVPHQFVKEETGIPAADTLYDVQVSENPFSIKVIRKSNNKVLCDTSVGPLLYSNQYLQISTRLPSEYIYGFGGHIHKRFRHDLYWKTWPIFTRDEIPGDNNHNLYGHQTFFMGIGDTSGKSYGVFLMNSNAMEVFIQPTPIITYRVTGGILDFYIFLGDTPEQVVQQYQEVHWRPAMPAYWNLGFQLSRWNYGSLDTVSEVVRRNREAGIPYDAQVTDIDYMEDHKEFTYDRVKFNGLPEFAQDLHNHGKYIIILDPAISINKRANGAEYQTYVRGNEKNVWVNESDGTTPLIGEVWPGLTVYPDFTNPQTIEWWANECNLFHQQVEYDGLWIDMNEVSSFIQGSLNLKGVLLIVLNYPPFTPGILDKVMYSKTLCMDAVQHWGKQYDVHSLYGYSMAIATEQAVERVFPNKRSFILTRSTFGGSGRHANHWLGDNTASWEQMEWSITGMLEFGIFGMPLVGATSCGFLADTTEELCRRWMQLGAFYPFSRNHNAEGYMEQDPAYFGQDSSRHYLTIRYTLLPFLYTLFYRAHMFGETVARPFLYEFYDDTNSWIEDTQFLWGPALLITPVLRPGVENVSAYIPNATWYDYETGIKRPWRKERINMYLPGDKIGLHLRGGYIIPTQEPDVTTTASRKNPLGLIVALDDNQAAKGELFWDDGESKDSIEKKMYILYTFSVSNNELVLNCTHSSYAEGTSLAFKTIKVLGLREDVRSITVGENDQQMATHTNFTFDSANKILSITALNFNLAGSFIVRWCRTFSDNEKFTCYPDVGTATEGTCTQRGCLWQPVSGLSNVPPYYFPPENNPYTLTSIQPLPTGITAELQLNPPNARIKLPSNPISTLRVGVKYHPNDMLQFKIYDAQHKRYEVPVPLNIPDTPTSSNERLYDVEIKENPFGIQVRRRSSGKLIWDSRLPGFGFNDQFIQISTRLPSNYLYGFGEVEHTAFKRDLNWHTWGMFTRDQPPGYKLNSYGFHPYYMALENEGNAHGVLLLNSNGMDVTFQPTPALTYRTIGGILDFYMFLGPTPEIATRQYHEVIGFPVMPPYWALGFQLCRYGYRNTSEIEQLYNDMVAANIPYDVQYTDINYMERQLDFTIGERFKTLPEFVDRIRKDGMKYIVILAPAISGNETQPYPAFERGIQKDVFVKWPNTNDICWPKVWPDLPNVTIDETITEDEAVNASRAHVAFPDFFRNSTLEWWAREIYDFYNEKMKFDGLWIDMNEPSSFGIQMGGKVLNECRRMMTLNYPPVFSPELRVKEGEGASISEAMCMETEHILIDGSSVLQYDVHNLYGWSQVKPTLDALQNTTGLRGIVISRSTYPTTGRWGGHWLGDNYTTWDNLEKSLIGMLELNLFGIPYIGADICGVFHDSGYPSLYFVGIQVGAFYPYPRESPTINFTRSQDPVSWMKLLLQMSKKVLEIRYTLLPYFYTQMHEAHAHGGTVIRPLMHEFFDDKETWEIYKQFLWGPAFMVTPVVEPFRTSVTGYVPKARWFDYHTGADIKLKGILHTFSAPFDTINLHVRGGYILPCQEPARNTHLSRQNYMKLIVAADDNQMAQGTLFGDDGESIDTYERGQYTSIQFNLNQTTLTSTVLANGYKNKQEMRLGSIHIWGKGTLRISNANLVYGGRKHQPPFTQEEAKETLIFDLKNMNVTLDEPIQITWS
Outline: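 Rat intestinal enzyme prep + test cpd dilutions, 60 min 37 °C; add maltose (maltase) or sucrose (sucrase), 30 min 37 °C; stop 90 °C 5 min. Glucose readout (glucose oxidase kit). IC50 from 4-PL fit of % inhibition vs conc.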

Question: How did the IC50 [1] turn out when `N#Cc1cc(NCc2ccc(CN3C[C@H](O)[C@@H](O)[C@H](O)[C@H]3CO)cc2)cc(-c2ncccn2)c1` [Compound 1065, 3-(pyrimidin-2-yl)-5-{[(4-{[(2R,3R,4R,5S)-3,4,5-trihydroxy-2-(hydroxymethyl)piperidin-1-yl]methyl}phenyl)methyl]amino}-benzonitrile] was run?
Answer: The IC50 was 9 nM.

Question: What about the IC50 [2] of the same compound?
Answer: The IC50 was 3 nM.

Question: What about the IC50 [3] of the same compound?
Answer: The IC50 was 6 nM.

Question: And the IC50 [4]?
Answer: The IC50 was 37 nM.

Question: `OC[C@@H]1[C@@H](O)[C@H](O)[C@@H](O)CN1Cc1cccc(CNc2ccc(C3=COCCO3)cc2)c1` [Compound 1066, (2R,3R,4R,5S)-1-{[3-({[4-(5,6-dihydro-1,4-dioxin-2-yl)phenyl]amino}methyl)phenyl]methyl}-2-(hydroxymethyl)piperidine-3,4,5-triol] was tested. Which IC50 [1] did it give?
Answer: Its IC50 is 69 nM.

Question: What about the IC50 [2] of the same compound?
Answer: Its IC50 is 41 nM.

Question: What about the IC50 [3] of the same compound?
Answer: The IC50 was 3360 nM.

Question: And the IC50 [4]?
Answer: Its IC50 is 26 nM.

Question: With `COc1cc(Br)cc(NCCn2cc(CCN3C[C@H](O)[C@@H](O)[C@H](O)[C@H]3CO)c3ccccc32)c1` [Compound 1075, (2R,3R,4R,5S)-1-[2-(1-{2-[(3-bromo-5-methoxyphenyl)amino]ethyl}-1H-indol-3-yl)ethyl]-2-(hydroxymethyl)piperidine-3,4,5-triol] as the compound, how does the IC50 [1] read?
Answer: Its IC50 is 1920 nM.

Question: And the IC50 [2]?
Answer: Its IC50 is 238 nM.

Question: What about the IC50 [3] of the same compound?
Answer: The IC50 was 150 nM.

Question: What about the IC50 [4] of the same compound?
Answer: The IC50 was 722 nM.

Question: Which results are given for `OC[C@@H]1[C@@H](O)[C@H](O)[C@@H](O)CN1CCc1cn(CCNc2ccccc2)c2ccccc12` [Compound 1076, (2R,3R,4R,5S)-2-(hydroxymethyl)-1-(2-{1-[2-(phenylamino)ethyl]-1H-indol-3-yl}ethyl)piperidine-3,4,5-triol]?
Answer: IC50 [1]: 1310 nM; IC50 [2]: 250 nM; IC50 [3]: 66 nM; IC50 [4]: 854 nM

Question: With `CC(C)c1cc(CCNc2ccc(N=[N+]=[N-])cc2[N+](=O)[O-])cc(CCN2C[C@H](O)[C@@H](O)[C@H](O)[C@H]2CO)c1` [Compound 1077, (2R,3R,4R,5S)-1-[2-(3-{2-[(4-azido-2-nitrophenyl)amino]ethyl}-5-(propan-2-yl)phenyl)ethyl]-2-(hydroxymethyl)piperidine-3,4,5-triol] as the compound, how does the IC50 [1] read?
Answer: Its IC50 is 697 nM.

Question: What about the IC50 [2] of the same compound?
Answer: Its IC50 is 6650 nM.

Question: What about the IC50 [3] of the same compound?
Answer: Its IC50 is 203 nM.

Question: What about the IC50 [4] of the same compound?
Answer: The IC50 was 8140 nM.

Question: Which results are given for `O=[N+]([O-])c1cc(-c2ncc[nH]2)ccc1NCCc1ccc(CCN2C[C@H](O)[C@@H](O)[C@H](O)[C@H]2CO)cc1` [Compound 1078, (2R,3R,4R,5S)-2-(hydroxymethyl)-1-{2-[4-(2-{[4-(1H-imidazol-2-yl)-2-nitrophenyl]amino}ethyl)phenyl]ethyl}piperidine-3,4,5-triol]?
Answer: IC50 [1]: 200 nM; IC50 [2]: 28 nM; IC50 [3]: 95 nM; IC50 [4]: 506 nM

Question: What does the source list for `OC[C@@H]1[C@@H](O)[C@H](O)[C@@H](O)CN1Cc1cccc(CNc2ccc(N3CCOCC3)cc2)c1` [Compound 1081, (2R,3R,4R,5S)-2-(hydroxymethyl)-1-{[3-({[4-(morpholin-4-yl)phenyl]amino}methyl)phenyl]methyl}piperidine-3,4,5-triol]?
Answer: IC50 [1]: 169 nM; IC50 [2]: 110 nM; IC50 [3]: 70400 nM; IC50 [4]: 161 nM

Question: How did the IC50 [1] turn out when `OC[C@@H]1[C@@H](O)[C@H](O)[C@@H](O)CN1Cc1cccc(CNc2ccc(-c3ccc[nH]3)cc2)c1` [Compound 1082, (2R,3R,4R,5S)-2-(hydroxymethyl)-1-{[3-({[4-(1H-pyrrol-2-yl)phenyl]amino}methyl)phenyl]methyl}piperidine-3,4,5-triol] was run?
Answer: The IC50 was 69 nM.

Question: What about the IC50 [2] of the same compound?
Answer: The IC50 was 14 nM.

Question: And the IC50 [3]?
Answer: The IC50 was 5630 nM.

Question: What about the IC50 [4] of the same compound?
Answer: Its IC50 is 25 nM.

Question: Which results are given for `OC[C@@H]1[C@@H](O)[C@H](O)[C@@H](O)CN1Cc1cccc(CNc2ccc(-c3cccnn3)cc2)c1` [Compound 1083, (2R,3R,4R,5S)-2-(hydroxymethyl)-1-{[3-({[4-(pyridazin-3-yl)phenyl]amino}methyl)phenyl]methyl}piperidine-3,4,5-triol]?
Answer: IC50 [1]: 72 nM; IC50 [2]: 54 nM; IC50 [3]: 9990 nM; IC50 [4]: 28 nM

Question: What does the source list for `OC[C@@H]1[C@@H](O)[C@H](O)[C@@H](O)CN1Cc1cccc(CNc2ccc(-c3ncccn3)cc2)c1` [Compound 1084, (2R,3R,4R,5S)-2-(hydroxymethyl)-1-{[3-({[4-(pyrimidin-2-yl)phenyl]amino}methyl)phenyl]methyl}piperidine-3,4,5-triol]?
Answer: IC50 [1]: 79 nM; IC50 [2]: 95 nM; IC50 [3]: 26600 nM; IC50 [4]: 44 nM

Question: How did the IC50 [1] turn out when `O=[N+]([O-])c1cc(CN2CCCO2)ccc1NCc1cccc(CN2C[C@H](O)[C@@H](O)[C@H](O)[C@H]2CO)c1` [Compound 1086] was run?
Answer: The IC50 was 132 nM.

Question: And the IC50 [2]?
Answer: The IC50 was 124 nM.

Question: What about the IC50 [3] of the same compound?
Answer: The IC50 was 44200 nM.

Question: And the IC50 [4]?
Answer: The IC50 was 76 nM.

Question: `O=[N+]([O-])c1cc(C2=COCCO2)ccc1NCc1cccc(CN2C[C@H](O)[C@@H](O)[C@H](O)[C@H]2CO)c1` [Compound 1087, (2R,3R,4R,5S)-1-{[3-({[4-(5,6-dihydro-1,4-dioxin-2-yl)-2-nitro-phenyl]amino}methyl)phenyl]methyl}-2-(hydroxymethyl)piperidine-3,4,5-triol] was tested. Which IC50 [1] did it give?
Answer: The IC50 was less than 1 nM.

Question: What about the IC50 [2] of the same compound?
Answer: The IC50 was 4 nM.

Question: What about the IC50 [3] of the same compound?
Answer: The IC50 was 8110 nM.

Question: And the IC50 [4]?
Answer: Its IC50 is less than 1 nM.

Question: What does the source list for `O=[N+]([O-])c1cc(-c2ccc[nH]2)ccc1NCc1cccc(CN2C[C@H](O)[C@@H](O)[C@H](O)[C@H]2CO)c1` [Compound 1088, (2R,3R,4R,5S)-2-(hydroxymethyl)-1-{[3-({[2-nitro-4-(1H-pyrrol-2-yl)phenyl]amino}methyl)phenyl]methyl}piperidine-3,4,5-triol]?
Answer: IC50 [1]: < 1 nM; IC50 [2]: < 1 nM; IC50 [3]: 6360 nM; IC50 [4]: < 1 nM

Question: Which IC50 [1] does the source give for `O=[N+]([O-])c1cc(-c2cccnn2)ccc1NCc1cccc(CN2C[C@H](O)[C@@H](O)[C@H](O)[C@H]2CO)c1` [Compound 1089, (2R,3R,4R,5S)-2-(hydroxymethyl)-1-{[3-({[2-nitro-4-(pyridazin-3-yl)phenyl]amino}methyl)phenyl]methyl}piperidine-3,4,5-triol] here?
Answer: Its IC50 is 26 nM.

Question: And the IC50 [2]?
Answer: The IC50 was 36 nM.

Question: And the IC50 [3]?
Answer: Its IC50 is 20700 nM.

Question: And the IC50 [4]?
Answer: Its IC50 is 23 nM.

Question: Which results are given for `O=[N+]([O-])c1cc(-c2ncccn2)ccc1NCc1cccc(CN2C[C@H](O)[C@@H](O)[C@H](O)[C@H]2CO)c1` [Compound 1090, (2R,3R,4R,5S)-2-(hydroxymethyl)-1-{[3-({[2-nitro-4-(pyrimidin-2-yl)phenyl]amino}methyl)phenyl]methyl}piperidine-3,4,5-triol]?
Answer: IC50 [1]: 7 nM; IC50 [2]: 34 nM; IC50 [3]: 13800 nM; IC50 [4]: 2 nM

Question: How did the IC50 [1] turn out when `OC[C@@H]1[C@@H](O)[C@H](O)[C@@H](O)CN1Cc1ccc(CNc2ccc(CN3CCCO3)cc2)cc1` [Compound 1092, (2R,3R,4R,5S)-2-(hydroxymethyl)-1-({4-[({4-[(1,2-oxazolidin-2-yl)methyl]phenyl}amino)methyl]phenyl}methyl)piperidine-3,4,5-triol] was run?
Answer: Its IC50 is 59 nM.

Question: And the IC50 [2]?
Answer: Its IC50 is 38 nM.

Question: What about the IC50 [3] of the same compound?
Answer: The IC50 was 1780 nM.

Question: What about the IC50 [4] of the same compound?
Answer: Its IC50 is 48 nM.

Question: For `OC[C@@H]1[C@@H](O)[C@H](O)[C@@H](O)CN1Cc1ccc(CNc2ccc(C3=COCCO3)cc2)cc1` [Compound 1093, (2R,3R,4R,5S)-1-{[4-({[4-(5,6-dihydro-1,4-dioxin-2-yl)phenyl]amino}methyl)phenyl]methyl}-2-(hydroxymethyl)piperidine-3,4,5-triol], which IC50 [1] is on record?
Answer: The IC50 was 12 nM.

Question: And the IC50 [2]?
Answer: Its IC50 is 2 nM.

Question: And the IC50 [3]?
Answer: Its IC50 is 1040 nM.

Question: What about the IC50 [4] of the same compound?
Answer: The IC50 was 7 nM.

Question: With `OC[C@@H]1[C@@H](O)[C@H](O)[C@@H](O)CN1Cc1ccc(CNc2ccc(-c3ccc[nH]3)cc2)cc1` [Compound 1094, (2R,3R,4R,5S)-2-(hydroxymethyl)-1-{[4-({[4-(1H-pyrrol-2-yl)phenyl]amino}methyl)phenyl]methyl}piperidine-3,4,5-triol] as the compound, how does the IC50 [1] read?
Answer: The IC50 was 28 nM.

Question: What about the IC50 [2] of the same compound?
Answer: The IC50 was 19 nM.

Question: And the IC50 [3]?
Answer: Its IC50 is 177 nM.

Question: What about the IC50 [4] of the same compound?
Answer: Its IC50 is 57 nM.

Question: What does the source list for `OC[C@@H]1[C@@H](O)[C@H](O)[C@@H](O)CN1Cc1ccc(CNc2ccc(-c3ncccn3)cc2)cc1` [Compound 1096, (2R,3R,4R,5S)-2-(hydroxymethyl)-1-{[4-({[4-(pyrimidin-2-yl)phenyl]amino}methyl)phenyl]methyl}piperidine-3,4,5-triol]?
Answer: IC50 [1]: 15 nM; IC50 [2]: 11 nM; IC50 [3]: 1430 nM; IC50 [4]: 23 nM
